Experimental data from patent publication US10913738B2 (BRISTOL-MYERS SQUIBB COMPANY, priority 2017, dated 2021).
Where two headings read alike, the source gives them in different places.

Legend:
[1] = biological target: T1, His-GST-TVMV-hRIPK1(1-324) (Homo sapiens, UniProt Q13546); assay: RIPK1 HTRF Binding Assay
T1 construct: The coding region of human RIPK1(1-324) flanked by NdeI site at 5′ end; made in house; host or cells: Spodoptera frugiperda (Sf9) insect cells, baculovirus
T1 sequence (Q13546 1-324): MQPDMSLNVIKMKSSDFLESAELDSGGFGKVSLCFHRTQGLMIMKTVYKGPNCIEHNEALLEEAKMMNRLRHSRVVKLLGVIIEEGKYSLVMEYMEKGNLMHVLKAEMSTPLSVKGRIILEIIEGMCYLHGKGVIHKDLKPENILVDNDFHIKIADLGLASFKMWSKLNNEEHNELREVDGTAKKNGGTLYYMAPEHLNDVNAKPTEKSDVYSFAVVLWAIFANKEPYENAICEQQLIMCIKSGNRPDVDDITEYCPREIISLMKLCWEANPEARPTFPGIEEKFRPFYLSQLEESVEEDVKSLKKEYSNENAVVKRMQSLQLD

[2] = test system: MLKL phosphorylation in HT29-L23 human colorectal adenocarcinoma cells; assay: MLKL Phosphorylation High-Content Assay; format: cell-based; details: Homo sapiens
In short: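 IC50 and Ymax obtained by 4-parameter logistic fitting of MLKL phosphorylation, measured as mean circ-ring average intensity ratio from high-content images. Staining used an anti-phospho-S358 MLKL antibody overnight at 4° C., following six-hour cell incubation at 37° C.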

[3] = x marks IC50 class <20 nM, read-out: RIPK1 HTRF binding <20 nM
[4] = x marks IC50 class <20 nM, read-out: pMLKL cell activity <20 nM
[5] = x marks IC50 class 20-200 nM, read-out: pMLKL cell activity 20-200 nM
[6] = x marks IC50 class 20-200 nM, read-out: RIPK1 HTRF binding 20-200 nM
[7] = x marks IC50 class >200 nM, read-out: pMLKL cell activity >200 nM

SMILES	IC50 [1, 3] [nM]	IC50 [2, 4] [nM]	IC50 [2, 5] [nM]	IC50 [1, 6] [nM]	IC50 [2, 7] [nM]
[2H]C([2H])(Oc1c(F)cc(F)cc1CNC(=O)c1cc(-c2ccn3nc(N)nc3c2)c(C)nc1C)C1CC1 [Example 287, 5-(2-amino-[1,2,4]triazolo[1,5-a]pyridin-7-yl)-N-(2-(cyclopropylmethoxy-d2)-3,5-difluorobenzyl)-2,6-dimethylnicotinamide]	< 20	< 20			
Cc1nc(C)c(-c2ccn3nc(N)nc3c2)cc1C(=O)NCc1ccccc1OC(C)C1CCCC1 (stereo not drawn) [Example 16, 5-{2-Amino-[1,2,4]triazolo[1,5-a]pyridin-7-yl}-N-{[2-(1-cyclopentylethoxy)phenyl]methyl}-2,6-dimethylpyridine-3-carboxamide]	< 20		20 to 200		
COc1cnc(-c2ccn3nc(N)nc3c2)cc1C(=O)NCc1cc(OC(F)(F)F)ccc1F [Example 388, 2-(2-amino-[1,2,4]triazolo[1,5-a]pyridin-7-yl)-N-(2-fluoro-5-(trifluoromethoxy)benzyl)-5-methoxyisonicotinamide]			20 to 200	20 to 200	
C[C@@H](NC(=O)c1cc(-c2ccn3nc(N)nc3c2)cnc1Cl)c1cc(OC(F)(F)F)ccc1F [Example 324, (R)-5-(2-amino-[1,2,4]triazolo[1,5-a]pyridin-7-yl)-2-chloro-N-(1-(2-fluoro-5-(trifluoromethoxy)phenyl)ethyl)nicotinamide]	< 20		20 to 200		
COc1nc(C)c(-c2ccn3nc(N)nc3c2)cc1C(=O)NCc1cccc(C(F)(F)F)c1 [Example 199, 5-{2-amino-[1,2,4]triazolo[1,5-a]pyridin-7-yl}-2-methoxy-6-methyl-N-{[3-(trifluoromethyl)phenyl]methyl}pyridine-3-carboxamide]				20 to 200	> 200
Nc1nc2cc(-c3cc(C(=O)NCc4ccccc4OC(F)(F)F)cnc3Cl)ccn2n1 [Example 372, 5-(2-amino-[1,2,4]triazolo[1,5-a]pyridin-7-yl)-6-chloro-N-(2-(trifluoromethoxy)benzyl)nicotinamide]	< 20				> 200
COc1nc(C)c(-c2ccn3nc(N)nc3c2)cc1C(=O)NCc1ccccc1OCC(F)(F)F [Example 332, 5-(2-amino-[1,2,4]triazolo[1,5-a]pyridin-7-yl)-2-methoxy-6-methyl-N-(2-(2,2,2-trifluoroethoxy)benzyl)nicotinamide]	< 20		20 to 200		
COc1nc(C)c(-c2ccn3nc(N)nc3c2)cc1C(=O)NCc1cc(F)ccc1OCC1CCCC1 [Example 206, 5-{2-amino-[1,2,4]triazolo[1,5-a]pyridin-7-yl}-N-{[2-(cyclopentylmethoxy)-5-fluorophenyl]methyl}-2-methoxy-6-methylpyridine-3-carboxamide]	< 20		20 to 200		
[2H]C([2H])([2H])Oc1ncc(-c2ccn3nc(N)nc3c2)cc1C(=O)NC([2H])([2H])c1cc(OC(F)(F)F)ccc1F [Example 93, 5-{2-amino-[1,2,4]triazolo[1,5-a]pyridin-7-yl}-N-{[2-fluoro-5-(trifluoromethoxy)phenyl] (deutero)methyl}-2-(deutero)methoxypyridine-3-carboxamide]	< 20		20 to 200		
Cc1ncc(-c2ccn3nc(N)nc3c2)cc1C(=O)NCc1cc(C(F)(F)F)ccc1Cl [Example 254]	< 20		20 to 200		
Cc1ncc(-c2ccn3nc(N)nc3c2)cc1C(=O)NC(C)c1cc(OC(F)(F)F)ccc1F (stereo not drawn) [Example 255, 5-{2-amino-[1,2,4]triazolo[1,5-a]pyridin-7-yl}-N-{1-[2-fluoro-5-(trifluoromethoxy)phenyl]ethyl}-2-methylpyridine-3-carboxamide]	< 20		20 to 200		
COc1ncc(-c2ccn3nc(N)nc3c2)cc1C(=O)NCc1cccc(F)c1OC1CCCC1 [Example 50, 5-{2-Amino-[1,2,4]triazolo[1,5-a]pyridin-7-yl}-N-{[2-(cyclopentyloxy)-3-fluorophenyl]methyl}-2-methoxypyridine-3-carboxamide]	< 20		20 to 200		
[2H]C([2H])(NC(=O)c1cc(-c2ccn3nc(N)nc3c2)cnc1C)c1cc(OC(F)(F)F)ccc1F [Example 252, 5-{2-amino-[1,2,4]triazolo[1,5-a]pyridin-7-yl}-N-{[2-fluoro-5-(trifluoromethoxy)phenyl](deutero)methyl}-2-methylpyridine-3-carboxamide]	< 20	< 20			
COc1nc(C)c(-c2ccn3nc(N)nc3c2)cc1C(=O)NCc1ccccc1OCC1CCCCC1 [Example 7, 5-{2-Amino-[1,2,4]triazolo[1,5-a]pyridin-7-yl}-N-{[2-(cyclohexylmethoxy)phenyl]methyl}-2-methoxy-6-methylpyridine-3-carboxamide]	< 20		20 to 200		
Cc1nc(C)c(-c2ccn3nc(N)nc3c2)cc1C(=O)NCc1cc(F)cc(F)c1OCC1CC1 [Example 184, 5-{2-amino-[1,2,4]triazolo[1,5-a]pyridin-7-yl}-N-{[2-(cyclopropylmethoxy)-3,5-difluorophenyl]methyl}-2,6-dimethylpyridine-3-carboxamide]	< 20	< 20			
Nc1nc2cc(-c3cnc(Cl)c(C(=O)NCc4cccc(OCC5CC5)c4)c3)ccn2n1 [Example 164]			20 to 200	20 to 200	
COc1ncc(-c2ccn3nc(N)nc3c2)cc1C(=O)NCc1ccccc1OCC1CC1 [Example 81, 5-{2-Amino-[1,2,4]triazolo[1,5-a]pyridin-7-yl}-N-{[2-(cyclopropylmethoxy)phenyl]methyl}-2-methoxypyridine-3-carboxamide]	< 20	< 20			
Cc1ncc(-c2ccn3nc(N)nc3c2)cc1C(=O)NCc1cc(F)cc(F)c1OC1CC(C)OC(C)C1 (stereo not drawn) [Example 315, 5-(2-amino-[1,2,4]triazolo[1,5-a]pyridin-7-yl)-N-(2-((2,6-dimethyltetrahydro-2H-pyran-4-yl)oxy)-3,5-difluorobenzyl)-2-methylnicotinamide]			20 to 200	20 to 200	
COc1ncc(-c2ccn3nc(N)nc3c2)cc1C(=O)NCc1cc(F)ccc1C(=O)N1CCC(F)(F)C1 [Example 376, 5-(2-amino-[1,2,4]triazolo[1,5-a]pyridin-7-yl)-N-(2-(3,3-difluoropyrrolidine-1-carbonyl)-5-fluorobenzyl)-2-methoxynicotinamide]	< 20	< 20			
COc1ncc(-c2ccn3nc(N)nc3c2)cc1C(=O)NCc1cccnc1OCC1CCC1 [Example 137, 5-{2-amino-[1,2,4]triazolo[1,5-a]pyridin-7-yl}-N-{[2-(cyclobutylmethoxy)pyridin-3-yl]methyl}-2-methoxypyridine-3-carboxamide]	< 20		20 to 200		
Cc1nc(C)c(-c2ccn3nc(N)nc3c2)cc1C(=O)NCc1cccc(OCC(F)(F)F)c1 [Example 293, 5-(2-amino-[1,2,4]triazolo[1,5-a]pyridin-7-yl)-2,6-dimethyl-N-(3-(2,2,2-trifluoroethoxy)benzyl)nicotinamide]			20 to 200	20 to 200	
CC(C)Oc1c(F)cc(F)cc1CNC(=O)c1cc(-c2ccn3nc(N)nc3c2)cnc1Cl [Example 163, 5-{2-amino-[1,2,4]triazolo[1,5-a]pyridin-7-yl}-2-chloro-N-{[3,5-difluoro-2-(propan-2-yloxy)phenyl]methyl}pyridine-3-carboxamide]	< 20		20 to 200		
COc1ncc(-c2ccn3nc(N)nc3c2)cc1C(=O)NCc1ccccc1-c1ccccc1 [Example 106, 5-{2-amino-[1,2,4]triazolo[1,5-a]pyridin-7-yl}-N-({[1,1′-biphenyl]-2-yl}methyl)-2-methoxypyridine-3-carboxamide]	< 20	< 20			
COc1nc(C)c(-c2ccn3nc(N)nc3c2)cc1C(=O)NCc1cccc(OCC2CC2)c1 [Example 200, 5-{2-amino-[1,2,4]triazolo[1,5-a]pyridin-7-yl}-N-{[3-(cyclopropylmethoxy)phenyl]methyl}-2-methoxy-6-methylpyridine-3-carboxamide]			20 to 200	20 to 200	
Cc1ncc(C(=O)NCc2cc(F)cc(F)c2OCC2CC2)cc1-c1ccn2nc(N)nc2c1 [Example 260, 5-{2-amino-[1,2,4]triazolo[1,5-a]pyridin-7-yl}-N-{[2-(cyclopropylmethoxy)-3,5-difluorophenyl]methyl}-6-methylpyridine-3-carboxamide]	< 20	< 20			
COc1ncc(-c2ccn3nc(N)nc3c2)cc1C(=O)Nc1cnn(C(C)c2ccc(F)cc2)c1 (single isomer, unassigned) [Example 76-2]	< 20		20 to 200		
COc1ncc(-c2ccn3nc(N)nc3c2)cc1C(=O)NCc1ccccc1OCC(F)(F)F [Example 343, 5-(2-amino-[1,2,4]triazolo[1,5-a]pyridin-7-yl)-2-methoxy-N-(2-(2,2,2-trifluoroethoxy)benzyl)nicotinamide]	< 20		20 to 200		
